Measurements taken from paper PMC5726399 (Neuropharmacology, 2017).
“Also recorded” adds a separate entry of the source. Structures can show the parent of a compound that is named as a salt. Where two headings read alike, the source gives them in different places. Where no end group is shown, it is not given here.

Assays:
[1] = test system: TRPV1 channels; settings: cited from earlier work
[2] = test system: GIRK channels; design: species or system rat
[3] = test system: NMDA receptors; settings: ref Chen et al., 2010, cited from earlier work; for effect on NMDA-induced substance P release: Marvizon et al., 1997
[4] = test system: AC/PKA pathway; assay: NK1R internalization induced by forskolin or 8-Br-cAMP in slices; design: species or system rat; settings: 60 min; for NK1R internalization elicited: 10 μM forskolin or 0.5 mM 8-Br-cAMP, no NMDA
[5] = test system: protein kinase C (PKC); assay: PKC inhibitors and activators: NMDA-induced NK1R internalization in slices; design: species or system rat; settings: for effect on NMDA-induced substance P release: 60 min
[6] = target: NMDA receptors with the NR2B subunit (Rattus norvegicus, UniProt P35439+Q00960); settings: % NK1R internalization
[7] = target: rat brain membranes; settings: ref Grimwood et al., 2000; cited from earlier work
[8] = test system: NR1a/NR2B NMDA receptors; settings: Xenopus oocytes; ref Williams, 1993; cited from earlier work
[9] = test system: adenylyl cyclase (AC); assay: AC inhibition: NMDA-induced NK1R internalization in slices; design: species or system rat; settings: SQ22536 10 μM, 60 min
[10] = test system: CTX-insensitive component of NMDA-induced substance P release; assay: CTX-insensitive component of NMDA-induced substance P release in slices; design: species or system rat; settings: 1 μM DAMGO, 100 μM SQ22536 or 10 μM KT5720, 60 min; for additional inhibition in presence of CTX GVIA: 1 μM CTX GVIA; for additional inhibition in presence of CTX MVIIC: 1 μM CTX MVIIC
[11] = test system: TRPV1 channels; design: species or system rat
[12] = test system: protein kinase A (PKA); assay: PKA inhibition: NMDA-induced NK1R internalization in slices; design: species or system rat; settings: 10 μM, 60 min
[13] = test system: substance P release / NK1R internalization in lamina I neurons; assay: In vivo NK1R internalization induced by intrathecal NMDA; design: species or system rat; settings: for lamina 1 neurons with NK1R internalization in example image: confocal image, one rat per group, L4
[14] = test system: NMDA receptors in DRG neurons; format: cell-based, rat
[15] = test system: NMDA receptors; assay: NMDA-induced NK1R internalization in spinal cord slices; design: species or system rat; settings: 10 μM NMDA + 10 μM D-Ser, 2 min, 35 °C
[16] = test system: NMDA receptor-induced substance P release; assay: NMDA-induced NK1R internalization in slices preincubated with BVT948; design: species or system rat; settings: 10 μM BVT948, 60 min preincubation
[17] = test system: NMDA receptor-induced substance P release; assay: NMDA-induced NK1R internalization in slices preincubated with BDNF; design: species or system rat
[18] = chelerythrine 10 μM, Ro-32-0432, TPPB 1 μM, with 10 nM DAMGO
[19] = chelerythrine 10 μM, Ro-32-0432, TPPB, PMA 1 μM

Chain of NMDA receptors with the NR2B subunit (Q00960 27-1482, other chains not shown): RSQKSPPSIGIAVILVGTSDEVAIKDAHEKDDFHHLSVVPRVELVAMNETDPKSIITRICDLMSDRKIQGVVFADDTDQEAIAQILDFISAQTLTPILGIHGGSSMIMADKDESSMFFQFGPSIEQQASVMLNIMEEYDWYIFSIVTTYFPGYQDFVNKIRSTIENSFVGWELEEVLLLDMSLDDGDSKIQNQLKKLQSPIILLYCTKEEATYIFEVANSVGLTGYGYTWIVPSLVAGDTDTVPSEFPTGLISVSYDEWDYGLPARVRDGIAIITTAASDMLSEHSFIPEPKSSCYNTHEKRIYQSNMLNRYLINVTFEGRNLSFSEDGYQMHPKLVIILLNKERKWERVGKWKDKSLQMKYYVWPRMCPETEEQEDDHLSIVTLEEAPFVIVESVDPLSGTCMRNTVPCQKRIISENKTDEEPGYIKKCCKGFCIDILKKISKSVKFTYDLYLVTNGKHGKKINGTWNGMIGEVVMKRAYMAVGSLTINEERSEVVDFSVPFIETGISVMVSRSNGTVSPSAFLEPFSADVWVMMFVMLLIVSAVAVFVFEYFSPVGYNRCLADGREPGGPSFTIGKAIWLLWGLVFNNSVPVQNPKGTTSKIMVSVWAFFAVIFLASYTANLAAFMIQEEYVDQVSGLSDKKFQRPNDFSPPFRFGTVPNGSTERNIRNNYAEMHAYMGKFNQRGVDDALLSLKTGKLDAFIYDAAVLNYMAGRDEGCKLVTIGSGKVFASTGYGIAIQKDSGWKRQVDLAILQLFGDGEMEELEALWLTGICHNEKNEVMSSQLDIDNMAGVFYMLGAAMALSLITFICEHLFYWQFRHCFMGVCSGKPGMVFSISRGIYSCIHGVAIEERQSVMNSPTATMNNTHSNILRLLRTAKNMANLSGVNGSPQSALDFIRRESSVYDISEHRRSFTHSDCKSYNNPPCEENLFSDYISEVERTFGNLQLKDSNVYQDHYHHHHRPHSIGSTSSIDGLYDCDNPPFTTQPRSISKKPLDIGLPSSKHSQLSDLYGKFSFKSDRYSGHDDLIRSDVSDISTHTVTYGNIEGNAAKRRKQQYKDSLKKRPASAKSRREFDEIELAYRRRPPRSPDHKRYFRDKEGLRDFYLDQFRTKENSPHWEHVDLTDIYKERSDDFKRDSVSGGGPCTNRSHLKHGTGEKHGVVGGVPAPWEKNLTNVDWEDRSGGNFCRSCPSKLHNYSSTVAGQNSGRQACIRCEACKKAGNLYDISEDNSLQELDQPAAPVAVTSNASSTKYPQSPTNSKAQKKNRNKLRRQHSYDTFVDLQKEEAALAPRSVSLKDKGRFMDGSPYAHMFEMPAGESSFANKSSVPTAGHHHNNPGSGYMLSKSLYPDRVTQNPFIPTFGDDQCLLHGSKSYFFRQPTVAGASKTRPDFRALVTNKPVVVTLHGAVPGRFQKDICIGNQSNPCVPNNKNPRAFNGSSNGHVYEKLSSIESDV

In the case of `NCC(CC(=O)O)c1ccc(Cl)cc1` (centres unmarked) [baclofen], the “effect on substance P release by dorsal root or low-concentration capsaicin” value ([1]; capsaicin on dorsal root or low concentrations, ref Lao et al., 2003) is given as “can be inhibited” and the “effect on substance P release by higher concentrations of capsaicin” value ([1]; higher capsaicin concentrations, ref Lao et al., 2003) is given as “did not inhibit substance P release”.

In the case of tertiapin Q, the “effect on NMDA-induced NK1R internalization” value [2] is reported as “small but significant inhibition” and the “effect on inhibition by DAMGO” value [2] is reported as “did not affect the inhibition by DAMGO”.

In the case of `C[C@]12N[C@H](Cc3ccccc31)c1ccccc12` [MK-801, (5S,10R)-(+)-5-Methyl-10,11-dihydro-5H-dibenzo[a, d]cyclohepten-5,10-imine maleate], the “effect on NMDA-induced substance P release” value [3] is listed as “inhibited”, the “effect on forskolin-evoked substance P release” value ([4]; 10 μM MK-801 or 1 μM DAMGO with 10 μM forskolin) is listed as “substantially decreased their effect on substance P release, although not to control levels” and the “effect on 8-Br-cAMP-evoked substance P release” value ([4]; 10 μM MK-801 or 1 μM DAMGO with 0.5 mM 8-Br-cAMP) is listed as “substantially decreased their effect on substance P release, although not to control levels”.

With `CC(C)[C@H]1C(=O)N[C@H](CO)Cc2cc(NC(=O)/C=C/C=C/c3ccc(C(F)(F)F)cc3)ccc2N1C` [TPPB, (2E4E)-N-[(2S,5S)-1,2,3,4,5,6-Hexahydro-5-(hydroxymethyl)-1-methyl-2-(1-methylethyl)-3-oxo-1,4-benzodiazocin-8-yl]-5-[4-(trifluoromethyl)phenyl]-2,4-pentadienamide] the “effect on inhibition by 10 nM DAMGO” value [5] was “did not affect inhibition by 10 nM DAMGO” and the “effect on NMDA-induced substance P release” value [5] was “strongly increased NMDA-induced substance P release”.

In the case of `CCN(CC)CC(=O)Nc1c(C)cccc1C` [lidocaine], the “effect on NMDA-induced substance P release (action potential block)” value [3] is given as “not affected”.

In the case of `C=C[C@@]1(C)CC(=O)[C@]2(O)[C@@]3(C)[C@@H](O)CCC(C)(C)[C@@H]3[C@H](O)[C@H](OC(C)=O)[C@@]2(C)O1` [forskolin], the NK1R internalization elicited [4] is reported as “greater than NMDA+D-Ser”.

For `CC(C(O)c1ccc(O)cc1)N1CCC(Cc2ccccc2)CC1` (centres unmarked) [ifenprodil], the top [6] is given as 62 ± 3%, the bottom ([6]; basal without NMDA 12±1%) is given as 26 ± 2% and the Kd [7] is given as 25 nM. For the same molecule, the “potency to inhibit currents” value [8] was 340 nM.

In the case of `Nc1ncnc2c1nc(Br)n2[C@@H]1O[C@@H]2COP(=O)(O)O[C@H]2[C@H]1O` [8-Br-cAMP, 8-Bromoadenosine-3′,5′-cyclic monophosphate], the NK1R internalization elicited [4] is reported as “greater than NMDA+D-Ser, with 8-Br-cAMP producing the larger effect”.

In the case of `NC(CCCP(=O)(O)O)C(=O)O` (centres unmarked) [2-amino-phosphopentanoic acid], the “effect on NMDA-induced substance P release” value [3] is given as “inhibited”.

In the case of `Nc1ncnc2c1ncn2C1CCCO1` (centres unmarked) [SQ22536, 9-(Tetrahydro-2-furanyl)-9H-purin-6-amine], the “effect on NMDA-induced NK1R internalization” value [9] is reported as “but not at 10 μM”, the “additional inhibition in presence of CTX GVIA” value [10] is reported as “did not produce any further inhibition” and the “additional inhibition in presence of CTX MVIIC” value [10] is reported as “did not produce any further inhibition”.

In the case of `COc1cc(CNC(=O)CCCC/C=C/C(C)C)ccc1O` [capsaicin], the “NK1R internalization elicited by 0.3 μM capsaicin” value [11] is listed as 75%, the “NK1R internalization elicited by 1 μM capsaicin” value [11] is listed as “maximal NK1R internalization” and the “effect of substance P depletion on NMDA-induced substance P release” value ([3]; C-fibers depleted by incubating slices with capsaicin) is listed as “disappears”. For the same molecule, the EC50 ([1]; read-out: EC50 to induce NK1R internalization, ref Marvizon et al., 2003a) was 370 nM.

For `CN(C)C[C@H]1CCn2c(c(C3=C(c4cn(C)c5ccccc45)C(=O)NC3=O)c3ccccc32)C1.Cl` [Ro-32-0432, 3-[(8S)-8-[(Dimethylamino)methyl]-6,7,8,9-tetrahydropyrido[1,2-a]indol-10-yl]-4-(1-methyl-1H-indol-3-yl)-1H-pyrrole-2,5-dione hydrochloride], the “effect on inhibition by 10 nM DAMGO” value [5, 18] was “did not increase its inhibition by DAMGO” and the “effect on NMDA-induced substance P release” value [5, 19] was “did not affect NMDA-induced substance P release”.

For `CCCCCCOC(=O)[C@]1(O)C[C@@H]2O[C@@]1(C)n1c3ccccc3c3c4c(c5c6ccccc6n2c5c31)C(=O)NC4` [KT5720, (9R,10S,12S)-2,3,9,10,11,12-Hexahydro-10-hydroxy-9-methyl-1-oxo-9,12-epoxy-1H-diindolo[1,2,3-fg:3′,2′,1′-kl]pyrrolo[3,4-i][1,6]benzodiazocine-10-carboxylic acid, hexyl ester], the “additional inhibition in presence of CTX GVIA” value [10] was “did not produce any further inhibition”, the “additional inhibition in presence of CTX MVIIC” value [10] was “did not produce any further inhibition” and the “effect on NMDA-induced NK1R internalization” value [12] was “did not completely abolish NMDA-induced NK1R internalization”. The “effect on NMDA-induced NK1R internalization” value ([12]; listed as KT 5720) was “decreased”.

With “PKI 14–22: protein kinase inhibitor 14–22, PKA inhibitor (GRTGRRNAI; also: myristoylated; UniProt P61925 15-23, looked up, fragment)” the “effect on NMDA-induced NK1R internalization” value [12] was “decreased”.

For `Oc1cc2c(cc1O)CN(C(=S)NCCc1ccc(Cl)cc1)CCC2` [capsazepine], the “effect on capsaicin-induced substance P release (TRPV1 antagonist)” value ([1]; ref Lao et al., 2003) is listed as “blocked”.

For `CN[C@H](CC(=O)O)C(=O)O` [NMDA, N-methyl-D-aspartate], the “lamina 1 neurons with NK1R internalization in example image” value [13] was “there was no NK1R internalization”, the “[Ca2+]i increase” value [14] was “increases in some of the neurons” and the “NK1R internalization induced (lamina I NK1R neurons)” value [15] was “about 50%”.

For `CC1(C)C(=O)N=C2C1=C(O)C(=O)c1ccccc12` [BVT948, 4-hydroxy-3,3-dimethyl-2H-benz[g]indole-2,5(3H)-dione], the “effect on NMDA-induced NK1R internalization” value [16] was “substantially increased NMDA-induced NK1R internalization”.

With `COc1ccc2c(c[n+](C)c3c4cc5c(cc4ccc23)OCO5)c1OC` [chelerythrine] the “effect on inhibition by 10 nM DAMGO” value [5, 18] was “did not increase its inhibition by DAMGO; also recorded: showed a trend to decrease the inhibition by 10 nM DAMGO” and the “effect on NMDA-induced substance P release” value [5, 19] was “did not affect NMDA-induced substance P release”.

B1: BDNF: brain-derived neurotrophic factor (protein, UniProt P23560 19-247, looked up)
Neurotrophic factor BDNF …: APMKEANIRGQGGLAYPGVRTHGTLESVNGPKAGSRGLTSLADTFEHVIEELLDEDQKVRPNEENNKDADLYTSRVMLSSQVPLEPPLLFLLEEYKNYLDAANMSMRVRRHSDPARRGELSVCDSISEWVTAADKKTAVDMSGGTVTVLEKVPVSKGQLKQYFYETKCNPMGYTKEGCRGIDKRHWNSQCRTTQSYVRALTMDSKKRIGWRFIRIDTSCVCTLTIKRGR
In the case of B1, the “lamina 1 neurons with NK1R internalization in example image” value [13] is reported as 5 out of 7 cells, the “effect of BDNF on NMDA-induced NK1R internalization” value ([13]; intrathecal BDNF 0.3 μg, 4 h before NMDA + D-Ser, p<0.01 vs NMDA) is reported as “significant increase in NMDA-induced NK1R internalization” and the “effect on NMDA-induced NK1R internalization” value [17] is reported as “increased NMDA-induced NK1R internalization”.
